Measured values taken from patent US7033829B2, “Method to inhibit cell growth using oligonucleotides” (Trustees of Boston University, priority 2000, dated 2006).
Oligonucleotides are written 5' to 3', each unit as a sugar letter and its base; * is a phosphorothioate linkage, no mark a phosphodiester; rarer units and linkages stand in square brackets, end groups in braces. Plain capitals give the bases only. d = 2'-deoxy (DNA); {P} = phosphate

Experiments:
[1] = test system: normal (control) fibroblasts; experiment: FACS analysis of normal (control) fibroblasts; assay type: cell-based, human; details: 40 μM
Protocol: Fibroblasts were obtained from an NBS (Nijmegen breakage syndrome) patient, in which p95/Nbs1 was below the level of detection. Preconfluent cultures or normal (control) fibroblasts and NBS fibroblasts were treated with 40 μM of the oligonucleotides and collected after 48 hours for FACS analysis (FIGS. 34A–34H). The averages and standard deviations were calculated from triplicate cultures of each condition. FACS profiles from one representative experiment of three are shown.

[2] = test system: telomere length; experiment: Mean telomere length in fibroblasts; assay type: cell-based, human; details: for MTL values: 40 μM, 5 days (diluent 10.59)
Protocol: Cells were plated at a density of 180,000 cells/ml in RPMI 1640 medium supplemented with 3% FBS. Cells were treated with 40 μM of either of the oligonucleotides for 72 hours. Cells were then collected, washed and fixed for 30 minutes in 4% paraformaldehyde and then permeabilized with 0.1% Triton X-100 for 2 minutes. The TUNEL assay was carried out with components and instructions of the In Situ Cell Death Detection Kit using fluorescein-labeled dUTP from Boehringer Mannheim. TUNEL-positive cells were detected by FACS analysis and confocal microscopy. Cellular Uptake of Oligonucleotides For confocal analysis, Jurkat cells were plated on Permanox chamber slides (Lab-Tek, Naperville, Ill.) and treated for 4 hours with fluorescein phosphoramidite (FAM)-labeled oligonucleotides (Research Genetics, Inc., Huntsville, Ala.). Adherent cells were fixed in 4% paraformaldehyde in PBS, stained with propidium iodide (PI) to identify nuclei, mounted with Slowfade reagent (Molecular Probes, Eugene, Oreg.), covered with a coverslip and stored at 4° C. in the dark. Uptake of the oligonucleotides was assessed in 5–10 μm sections with a Carl Zeiss LSM 510 confocal laser microscope. Computer images assign green to the FAM-oligonucleotides, red to PI, and yellow to co-localization of the signals. FACS analysis was performed on Jurkat cells identically treated with the FAM-oligonucleotides for 4 hours, then fixed in 0.5 ml of 4% paraformaldehyde overnight at 4° C. Fluorescence was measured on the FL-1 channel. Western Blot Analysis and Antibodies Western blot analysis was performed as previously described [Eller, M. S., et al., (1996), Proc Natl Acad Sci USA 93, 1087–1092]. Antibody Ab-6 (DO-1 clone, Oncogene Research Products, Cambridge, Mass.) detected p53; antibody KH95 (Santa Cruz Biotechnology, Inc., Santa Cruz, Calif.) detected E2F1; antibody Ab-4 (Oncogene Research products) detected p73. Phospho-p53 (serine 15) was detected using the #9284 polyclonal antibody and phospho-p95/Nbs1 (serine 343) was detected by a phospho-p95/Nbs1-specific polyclonal antibody, both antibodies from Cell Signaling Technology (Beverly, Mass.). p95/Nbs1 antibody (#NB-100-143, Novus Biologicals, Littleton, Colo.) and an actin antibody (I-19, Santa Cruz Biotechnology, Santa Cruz, Calif.) were also used. […] After the indicated times, total protein was collected and analyzed by 8% PAGE and western blot using a polyclonal antibody to p95/Nbs1 (#NB-100-143, Novus Biologicals, Littleton, Colo.). […] Telomere length was determined essentially as described by van Steensel and de Lange (van Steensel, B. and T. de Lange. 1997, Nature 385: 740–743) using the Telo TAGGG Telomere Length Assay from Roche Molecular Biochemicals (Indianapolis, Ind.) and the protocol supplied by the manufacturer. […]

| Substance | S phase growth arrest [1] | MTL values [2] [kilobases] | increase in MTL ([2]; 5-day experiment) |
| --- | --- | --- | --- |
| pGATCGATCGAT (DNA {P}-dGdAdTdCdGdAdTdCdGdAdT) [SEQ ID NO: 10, reference compound] | unaffected | 10.22 |  |
| pGTTAGGGTTAG (DNA {P}-dGdTdTdAdGdGdGdTdTdAdG) [SEQ ID NO: 5] | exhibit an S phase growth arrest within 24 hours | 12.25 | approximately 20% |
| pCTAACCCTAAC (DNA, 5' {P}, backbone not given here) [SEQ ID NO: 9, reference compound] | unaffected | 10.45 |  |
